According to patent US7135481B2, “Naphthalimide compositions and uses thereof” (ChemGenex Pharmaceuticals, Inc., priority 2000, dated 2006):

Columns and labels:
[1] = test system: RIF-1 murine fibrosarcoma; test: Example 2: RIF-1 tumor growth delay (TVQT), amonafide alone and with other chemotherapeutics; conditions: for TVQT: single agent, mean ± SE
Experimental: Animals: Female C3H mice (Charles River Laboratories, Holister, Calif.), approximately 3 months old, were used for the study. The average body weight was approximately 25 g. Animals were maintained in isolator cages on a 12-hour light-and-dark cycle. Food and water were available ad libitum.
Tumors: The RIF-1 murine fibrosarcoma cell line was maintained in in vitro culture (Waymouth medium supplemented with 20% fetal bovine serum) at 37 C. in a humidified 5% CO2 incubator. Log-phase RIF-1 cells were trypsinized and harvested from cell culture flasks to yield a concentration of 4×10^6 cells/mL, then injected intradermally in a volume of 50 μL (equivalent to 2×10^5 cells per injection) into both flanks of each mouse. Nine days later, when tumors reached approximately 100 mm^3 in size, the animals were randomized to different treatment groups.
Four to five animals were assigned to each treatment group. The intrperitoneal injection volume was 100 μL. The oral administration volume was 100 μL. Combination treatments using two test agents were administered as two separate injections, with the second one following the first either immediately or after 30 minutes.
Tumor volume (cubic millimeters, mm^3) was calculated according to the formula: V=π/6×D1×D2×D3 in which D1–3 are perpendicular diameters measured in millimeters (mm).
Tumor volume quadrupling time (TVQT), defined as the time required for a tumor to grow to four times (4×) its initial volume (at the time of treatment), was used as a study endpoint. The TVQT was determined for each treatment group and expressed in days as the mean±standard error (SE).

[2] = test system: murine fibrosarcomas (RIF-1 cells); test: Example 3: RIF-1 tumor growth delay (TGD), amonafide with camptothecin, genistein or rosmarinic acid; format: in vivo, C3H mice; conditions: single agent
Experimental: Transplantable experimental murine fibrosarcomas (2×10^5 RIF-1 cells) were grown intradermally in the flanks of 3 month old female C3H mice (Charles River, Holister, Calif.). When the tumors reached a volume of −100 mm^3, the mice were randomly assigned to each experimental group (4 mice per group).
Amonafide was manufactured by Penta for ChemGenex and was made to the appropriate concentration in saline. […] The compositions were injected systemically (i.e., intraperitoneally, i.p.), in a volume of 100 μl. For the treatment of groups 3, 5 and 7, amonafide, was injected immediately prior to the injection of camptothecin, genistein or rosmarinic acid. After treatment, the growth of the tumors was monitored three times per week by caliper measurements of three perpendicular diameters of the tumor and calculation of tumor volume from the formula: V=π/6×D1×D2×D3, where D1-3 represents tumor diameters, in mm.
The data is also expressed as the tumor growth delay (TGD) median which is the median days to 4× the tumor volume from the initial treatment day, and as the delay which is the median days to 4× of the treated group minus the median days to 4× of the control group. The T/C ratio is the ratio of days to 4× of the treated tumors over the days to 4× of the untreated control tumors. Increasing values indicate increased antitumor response.
The tumors were followed until they reached 4 times their Day 0 treatment volume or up to 30 days after treatment (tumor growth delay, TGD), whichever came first. The data is also expressed as the ratio of the tumor growth delay of the treated tumor (TGD) over the untreated control group (CTGD). Increasing values of this ratio indicate increased antitumor response.

[3] = test system: murine fibrosarcomas (RIF-1 cells); test: Example 1: tumor growth delay (TVQT) of RIF-1 fibrosarcoma, amonafide with cisplatin; format: in vivo, C3H mice; conditions: single agent
Experimental: When the tumors reached a volume of approximately 100 mm3, the mice were randomly assigned to each experimental group (4 mice per group).
The chemopotentiator, amonafide, was obtained from NCI and was made to the appropriate concentration in DMSO. […] The compositions were injected systemically (i.e., intraperitoneally, i.p.), in a volume of 100 microliters. For the treatment of group 3, the chemopotentiator, amonafide, was injected 30 minutes prior to the injection of cisplatin. After treatment, the growth of the tumors was monitored three times per week by caliper measurements of three perpendicular diameters of the tumor and calculation of tumor volume from the formula: V=π/6×D1×D2×D3, where D1-3 represents tumor diameters, in mm.
The tumors were followed until they reached a size of four times their day zero treatment volume (TVQT), or up to 30 days after treatment, whichever came first. The data is expressed as the “tumor volume quadrupling time” (TVQT) mean and as the “delay.” Mean TVQT is the mean days required for individual tumors to grow to four times the tumor volume at the initial treatment day. The “delay” is the median of days required for a tumor to grow to four times the mean size of the treated group, minus the median of days required to grow to four times the mean size of the control group. The data is also expressed as the ratio of the tumor volume quadrupling time of the treated tumor over the untreated control group (TVQT/CTVQT). Increasing values of this ratio indicate increased antitumor response.

[4] = Example 2: animal deaths after treatment; format: in vivo, C3H mice; conditions: formulated in DMSO at 12.5 mg/mL, IP
Experimental: The average body weight was approximately 25 g. […] Food and water were available ad libitum.
The intrperitoneal injection volume was 100 μL. The oral administration volume was 100 μL.

`COC(=O)C[C@](O)(CCCC(C)(C)O)C(=O)O[C@@H]1C(OC)=C[C@]23CCCN2CCc2cc4c(cc2[C@H]13)OCO4` [Homoharringtonine, homoharringtonine] showed a TVQT ([1]; 4 mg/Kg IP, listed as Homoharringtonine/WFI) of 8.5 ± 0.5 days and a TVQT ([1]; 4 mg/Kg IP, listed as homoharringtonie) of 8.5 days.
In the case of `O=c1c(-c2ccc(O)cc2)coc2cc(O)cc(O)c12` [Genistein], the “Delay” value ([2]; 60 mg/kg i.p.) is reported as 0.78 days, the “Median (TGD)” value ([2]; 60 mg/kg i.p.) is reported as 8.1 days and the “TGD ± S.E.” value ([2]; 60 mg/kg i.p.) is reported as 7.9 ± 0.4 days. For the same compound, the TGD/CTGD ([2]; 60 mg/kg i.p.) was 1.1.
In the case of `COc1cc2c(c(OC)c1OC)-c1ccc(OC)c(=O)cc1[C@@H](NC(C)=O)CC2` [Colchicine, colchicine], the TVQT ([1]; 10 mg/Kg PO) is reported as 6.3 days and the TVQT ([1]; 10 mg/Kg PO, listed as Colchicine/Saline) is reported as 6.3 ± 0.3 days.
With `COc1cc([C@@H]2c3cc4c(cc3[C@@H](O[C@@H]3O[C@@H]5CO[C@@H](C)O[C@H]5[C@H](O)[C@H]3O)[C@H]3COC(=O)[C@H]23)OCO4)cc(OC)c1O` [Etoposide] the TVQT ([1]; 10 mg/Kg IP) was 8.5 days and the TVQT ([1]; 10 mg/Kg IP, listed as Etoposide/Saline) was 8.5 ± 0.5 days.
With `O=C(/C=C/c1ccc(O)c(O)c1)O[C@H](Cc1ccc(O)c(O)c1)C(=O)O` [Rosmarinic Acid] the “Delay” value ([2]; 20 mg/kg i.p.) was 0.46 days, the “Median (TGD)” value ([2]; 20 mg/kg i.p.) was 7.8 days and the “TGD ± S.E.” value ([2]; 20 mg/kg i.p.) was 8.4 ± 0.5 days. It also gave a TGD/CTGD ([2]; 20 mg/kg i.p.) of 1.1.
In the case of `COc1cc(/C=C/C(=O)CC(=O)/C=C/c2ccc(O)c(OC)c2)ccc1O` [Curcumin], the TVQT ([1]; 25 mg/Kg IP) is reported as 9.7 days and the TVQT ([1]; 25 mg/Kg IP, listed as Curcumin/DMSO) is reported as 9.7 ± 1.1 days.
For `CC[C@@]1(O)C(=O)OCc2c1cc1n(c2=O)Cc2cc3ccccc3nc2-1` [Camptothecin], the “Delay” value ([2]; 6 mg/kg i.p.) was 5.45 days, the “Median (TGD)” value ([2]; 6 mg/kg i.p.) was 12.8 days and the “TGD ± S.E.” value ([2]; 6 mg/kg i.p.) was 12.9 ± 0.5 days. The TGD/CTGD ([2]; 6 mg/kg i.p.) was 1.7.
With `CC[C@]1(O)C[C@@H]2CN(CCc3c([nH]c4ccccc34)[C@@](C(=O)OC)(c3cc4c(cc3OC)N(C)[C@H]3[C@@](O)(C(=O)OC)[C@H](OC(C)=O)[C@]5(CC)C=CCN6CC[C@]43[C@@H]65)C2)C1` [Vinblastine] the TVQT ([1]; 2 mg/Kg IP) was 8.6 days and the TVQT ([1]; 2 mg/Kg IP, listed as Vinblastine/Saline) was 8.6 ± 0.4 days.
Work on `O=c1[nH]cc(F)c(=O)[nH]1` [5-Fluorouracil] yielded a TVQT ([1]; 15 mg/Kg IP) of 6.7 days, a TVQT ([1]; 15 mg/Kg IP, listed as Fluorouracil/Saline) of 6.7 ± 0.4 days and a TVQT ([1]; 30 mg/Kg IP) of 13.6 days. It also gave a TVQT ([1]; 30 mg/Kg IP, listed as Fluorouracil/Saline) of 13.6 ± 1.9 days.
With `CC(=O)O[C@H]1C(=O)[C@@]2(C)[C@H]([C@H](OC(=O)c3ccccc3)[C@]3(O)C[C@H](OC(=O)[C@H](O)[C@@H](NC(=O)c4ccccc4)c4ccccc4)C(C)=C1C3(C)C)[C@]1(OC(C)=O)CO[C@@H]1C[C@@H]2O` [Paclitaxel] the TVQT ([1]; 10 mg/Kg IP) was 7.9 days and the TVQT ([1]; 10 mg/Kg IP, listed as Paclitaxel/Cremaphor EL) was 7.9 ± 0.3 days.
For `N.N.[Cl][Pt][Cl]` [Cisplatin, cis-diamminedichloroplatinum II], the “Delay” value ([3]; 4 mg/kg i.p.) was 2.10 days, the “Mean TVQT ± S.E.” value ([3]; 4 mg/kg i.p.) was 8.4 ± 0.3 days and the “Median (TVQT)” value ([3]; 4 mg/kg i.p.) was 8.1 days. It also gave a TVQT/CTVQT ([3]; 4 mg/kg i.p.) of 1.3, a TVQT ([1]; 4 mg/Kg IP) of 9.2 days and a TVQT ([1]; 4 mg/Kg IP, listed as Cisplatin/WFI) of 9.2 ± 0.4 days.
In the case of `CN(C)CCN1C(=O)c2cccc3cc(N)cc(c23)C1=O` [Amonafide, 5-amino-2-[(dimethylamine)ethyl]-1H-benz[de-]isoquinoline-1,3-(2H)-dione], the animal deaths [4] is reported as “Two of four mice died”, the “Delay” value ([3]; 50 mg/kg i.p.) is reported as 2.94 days and the “Mean TVQT ± S.E.” value ([3]; 50 mg/kg i.p.) is reported as 9.7 ± 0.6 days. The “Median (TVQT)” value ([3]; 50 mg/kg i.p.) was 9.0 days, the TVQT/CTVQT ([3]; 50 mg/kg i.p.) was 1.5 and the TVQT ([1]; 30 mg/Kg IP) was 7.3 days. The TVQT ([1]; 30 mg/Kg IP, listed as Amonafide-Penta/Saline) was 7.3 ± 0.2 days, the “antitumor activity, summary in words (versus amonafide alone and the individual test agents)” value ([1]; intraperitoneal amonafide, alone or in combination) was “had antitumor activity” and the “Delay” value ([2]; 30 mg/kg i.p.) was -0.36 days. The “Median (TGD)” value ([2]; 30 mg/kg i.p.) was 7.0 days, the “TGD ± S.E.” value ([2]; 30 mg/kg i.p.) was 7.0 ± 0.4 days and the TGD/CTGD ([2]; 30 mg/kg i.p.) was 0.9.
